Test [1] addresses T1, And-1 protein fused to a luciferase reporter gene (Homo sapiens, UniProt O75717).
T1 sequence (O75717 1-1129): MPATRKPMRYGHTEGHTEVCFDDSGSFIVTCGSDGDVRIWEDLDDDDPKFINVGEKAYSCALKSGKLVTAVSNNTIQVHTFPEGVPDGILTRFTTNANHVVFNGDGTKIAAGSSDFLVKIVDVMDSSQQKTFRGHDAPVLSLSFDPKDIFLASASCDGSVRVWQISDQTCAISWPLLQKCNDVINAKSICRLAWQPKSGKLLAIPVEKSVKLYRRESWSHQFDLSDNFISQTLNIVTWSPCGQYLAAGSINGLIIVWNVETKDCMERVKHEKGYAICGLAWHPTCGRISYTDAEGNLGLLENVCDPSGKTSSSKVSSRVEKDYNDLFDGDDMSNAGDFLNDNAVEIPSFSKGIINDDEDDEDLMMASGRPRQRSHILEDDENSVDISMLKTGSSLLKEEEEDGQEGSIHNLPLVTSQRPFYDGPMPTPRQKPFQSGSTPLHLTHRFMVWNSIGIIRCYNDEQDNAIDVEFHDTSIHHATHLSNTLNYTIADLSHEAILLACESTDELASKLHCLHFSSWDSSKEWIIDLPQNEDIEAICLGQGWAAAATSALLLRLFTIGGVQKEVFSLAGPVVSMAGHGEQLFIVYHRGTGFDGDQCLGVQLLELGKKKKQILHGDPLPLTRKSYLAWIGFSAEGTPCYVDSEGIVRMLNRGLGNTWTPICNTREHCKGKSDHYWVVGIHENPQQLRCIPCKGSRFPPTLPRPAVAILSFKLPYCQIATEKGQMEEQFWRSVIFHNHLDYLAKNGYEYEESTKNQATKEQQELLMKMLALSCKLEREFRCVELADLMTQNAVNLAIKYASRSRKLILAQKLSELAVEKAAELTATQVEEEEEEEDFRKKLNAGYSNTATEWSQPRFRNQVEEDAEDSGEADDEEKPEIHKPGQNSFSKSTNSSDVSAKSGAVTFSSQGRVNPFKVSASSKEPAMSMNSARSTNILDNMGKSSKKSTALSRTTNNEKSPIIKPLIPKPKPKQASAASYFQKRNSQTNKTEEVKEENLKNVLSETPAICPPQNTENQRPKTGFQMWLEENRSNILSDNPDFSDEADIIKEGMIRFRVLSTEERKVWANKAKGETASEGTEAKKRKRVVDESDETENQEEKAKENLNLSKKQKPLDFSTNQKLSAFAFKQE
As to the kind of experiment: quantitative HTS (qHTS) of LOPAC library in HEK293T-And-1-Luc cells (luciferase read-out of And-1 level). It counts as cell-based. Conditions: HTS assay. From the text: To identify And-1 specific pharmacologic inhibitors, a high-throughput screening (HTS) assay was established to identify small molecules that can inhibit And-1 by inducing its degradation. For this assay, two stable cell lines, a HEK293T-And-1-Luc cell expressing And-1 protein fused to a luciferase reporter gene, and a HEK293T-Luc cell expressing luciferase only were generated (FIG. 13A). HEK293T-And-1-Luc cells allowed for assessment of And-1 protein levels by measuring luciferase activity in a high throughput manner.
(In general: qHTS replaces the single test concentration by a dilution series.)

Test [2] has as its system SREBP target gene SCD-1. As to the kind of experiment: RT-PCR detection of SCD-1 gene expression in AN3CA cells. It counts as cell-based, human. Conditions: 10 μM; for Relative mRNA expression of SCD-1: 48 h, DMSO = 1. On the procedure: • 1. Experimental reagent • 2. The experimental steps are as follows: • 2.1 AN3CA cell recovery and culture (10% serum 1% double antibody in MEM medium); • 2.2 passages (passage at a ratio of 1:2); • 2.3 Place 6 well plates when the cell status is good, 5×10^5Well, culture overnight; • 2.4 adding medicine: diluting the final concentration of the drug with a culture medium to 10 μM, 2 mL/well; • 2.5 adding medicine for 48 h, and then extracting RNA; • 2.5.1 removing the culture medium, adding 0.5 mL/hole Trizol to lyse the cells, repeatedly blowing and beating the cells by a pipette after 5 min, completely lysing the cells, transferring the cells into a 1.5 mL EP tube without RNase, and standing the tube for 5 min; • 2.5.2 adding 200 µl chloroform, shaking rapidly, mixing, standing for 10 min 12000 rpm/15 min; • 2.5.3 carefully taking out the supernatant, transferring the supernatant into an EP tube, adding isopropanol with the same volume, reversing, uniformly mixing, standing for 10 min, and centrifuging at 12000 rpm/10 min; • 2.5.4 removing the supernatant, adding 1 mL of 75% ethanol for washing, centrifuging at 8000 rpm/5 min once, carefully removing the supernatant, standing at room temperature for 10 min to volatilize the ethanol, and dissolving the precipitate with 40 μL of DEPC treated water when the precipitate becomes transparent; • 2.5.5 RNA concentration was measured and DEPC-treated water was diluted to 100 ng/μL • 2.6 reverse transcription: Kit Takara (PrimeScript RT reagent Kit (Perfect Real Time)

The target in test [3] is T2, And-1 (Homo sapiens, UniProt O75717).
T2 sequence (O75717 1-1129): T1 sequence (O75717 1-1129)
As to the kind of experiment: immunoblot analysis of And-1 expression in IGROV1 cells. On the set-up: endogenous in cells; host or cells: IGROV1 CR. To be noted: immunoblot, read-out: IC50 for inhibition of And-1 expression. It counts as cell-based. On the procedure:
The high IC50 of resveratrol compromises its potential clinical application; therefore, resveratrol was used as a lead compound to screen 12 analogs of resveratrol for potent compounds that can inhibit And-1 (FIG. 14). […] To perform immunoblot analyses, cells were first treated with increasing concentrations of the 12 analogs. After treatment, the cells were harvested and then lysed with RIPA buffer protease inhibitor and phosphatase inhibitor cocktail. Protein concentration was determined by the BCA protein assay. Equal amounts of whole cell lysates were separated on sodium dodecyl sulfate polyacrylamide gel electrophoresis (SDS-PAGE) and transferred onto nitrocellulose membranes. Membranes were then incubated in blocking solution (5% non-fat milk in 20 mM TRIS-HCl, 150 mM NaCl, 0.1% Tween-20) (TBST), followed by incubation with the indicated antibodies at 4° C. overnight. The membranes were then washed in TBST and incubated with HRP-conjugated secondary antibodies for 1 hour at room temperature (21° C.±2° C.). Antibody detection was performed with an enhanced chemiluminescence reaction.
Background: In western blotting, separated proteins are transferred to a membrane and probed.

Test [4] deals with T2, And-1. As to the kind of experiment: inhibition of And-1 in OV90 CR cells. It counts as cell-based. Also on record: endogenous in cells. To be noted: inhibition of And-1, OV90 CR cells.
For test [5], the target named is T2, And-1. As to the kind of experiment: inhibition of And-1 in IGROV1 CR cells. It counts as cell-based. Also on record: endogenous in cells; host or cells: IGROV1 CR. Conditions: inhibition of And-1, IGROV1 CR cells.
Setting [6] is: determination 1, read-out: IC50 (μM) 1.
Setting [7] is: average of 1 and 2, read-out: IC50 (μM) average.
[8] abbreviates: determination 2, read-out: IC50 (μM) 2.

Consider 22 compounds from patent US12258360B2, “Compositions and methods for treatment of anticancer-drug resistant cancers” (THE GEORGE WASHINGTON UNIVERSITY, priority 2020, dated 2025).

SMILES strings stand for the structures. Counter-ions that a name gives are not always drawn. Like-named read-outs stand apart in the source and are kept apart here.

As for `COc1cc2c(cc1O)CC[C@@H]1[C@@H]2CC[C@]2(C)[C@@H](O)CC[C@@H]12` [2-methoxyestradiol], the IC50 in test [1] (setting [6]) came out at 1.67 µM. Moreover, the “IC50 (μM) 2” value in test [1] (determination 2) is “inactive”.
The like results for `CC[C@@]1(O)C(=O)OCc2c1cc1n(c2=O)Cc2cc3ccccc3nc2-1` [(S)-(+)-Camptothecin] were, in that order, 0.73 µM and “inactive”.
For `CC[n+]1c(/C=C/C=C2/N(C)c3ccccc3C2(C)C)sc2ccccc21` [AC-93253 iodide], the results for the IC50 in test [1] (setting [7]), in test [1] (setting [6]) and in test [1] (setting [8]) were 0.76 µM, 1.09 µM and 0.44 µM, respectively.
Take `CNc1ccc2oc(C[C@H]3O[C@@]4(CC[C@H]3C)O[C@H]([C@H](C)C(=O)c3ccc[nH]3)[C@H](C)C[C@H]4C)nc2c1C(=O)O` [Calcimycin]: the IC50 in test [1] (setting [7]) is 8.32 µM; in test [1] (setting [6]), 6.1 µM; in test [1] (setting [8]) it was 10.5 µM.
The like results for `COCCOC(=O)C1=C(C)NC(C)=C(C(=O)OC/C=C/c2ccccc2)C1c1cccc([N+](=O)[O-])c1` (stereo not drawn) [Cilnidipine] were, in that order, 21.1 µM, 22.9 µM and 19.3 µM.
`c1ccc2c(c1)[I+]c1ccccc1-2` [Diphenyleneiodonium chloride]: the IC50 in test [1] (setting [7]) was found to be 0.43 µM; in test [1] (setting [6]), 0.84 µM; in test [1] (setting [8]) it was 0.03 µM.
In the case of `Nc1ccn([C@@H]2O[C@H](CO)[C@@H](O)C2(F)F)c(=O)n1` [Gemcitabine hydrochloride], in test [1] (setting [6]), the IC50 is 0.02 µM. Also, the “IC50 (μM) 2” value in test [1] (determination 2) is “inactive”.
Turning to `OB1OCc2cc(/C=C/c3cccc(F)c3)ccc21` [IX, (E)-5-(3-fluorostyryl)benzo[c][1,2]oxaborol-1(3H)-ol], in test [2] (AN3CA cells), the “Relative mRNA expression of SCD-1” value is given as 0.72.
`O=C1C(SCCO)=C(SCCO)C(=O)c2ccccc21` [NSC 95397]: the half-inhibitory concentration (IC50) was found to be 9.42 µM in test [1] (setting [7]), 11.2 µM in test [1] (setting [6]) and 7.68 µM in test [1] (setting [8]).
The like results for `C=CCc1cccc(/C=N/NC(=O)CN2CCN(Cc3ccccc3)CC2)c1O` [PAC-1] were, in that order, 21.3 µM, 18.8 µM and 23.8 µM.
Turning to `CCN(CC)CCOc1ccc(Nc2ncc3cc(-c4c(Cl)cccc4Cl)c(=O)n(C)c3n2)cc1` [PD-166285 hydrate], the DC50 came out at 3.03 µM in test [1] (setting [7]), 3.33 µM in test [1] (setting [6]) and 2.73 µM in test [1] (setting [8]).
Consider `Oc1ccc(C=Cc2cc(O)cc(O)c2)cc1` [Resveratrol], for which the DC50 in test [1] (setting [7]) was 18.9 µM; in test [1] (setting [6]), 14.9 µM; in test [1] (setting [8]) it was 22.9 µM; in test [3] it was 16.7 µM.
`C/C=C(/C)C(=O)O[C@H]1C(C)=C2[C@H]([C@@H]1OC(=O)CCCCCCC)[C@@](C)(OC(C)=O)C[C@H](OC(=O)CCC)[C@@]1(O)[C@H]2OC(=O)[C@@]1(C)O` [Thapsigargin]: the IC50 was determined as 6.95 µM in test [1] (setting [7]), 13.3 µM in test [1] (setting [6]) and 0.63 µM in test [1] (setting [8]).
With `CC[C@@]1(O)C(=O)OCc2c1cc1n(c2=O)Cc2cc3c(CN(C)C)c(O)ccc3nc2-1` [Topotecan hydrochloride hydrate], the DC50 in test [1] (setting [6]) was found to be 0.61 µM. For the same compound, the “IC50 (μM) 2” value in test [1] (determination 2) was “inactive”.
Take `OB1OCc2cc(/C=C/c3ccccc3C(F)(F)F)ccc21` [VI, (E)-5-(2-(trifluoromethyl)styryl)benzo[c][1,2]oxaborol-1(3H)-ol]: the “Relative mRNA expression of SCD-1” value in test [2] (AN3CA cells) worked out at 1.03.
The same measure, in the same setting: for `OB1OCc2cc(/C=C/c3ccc(C(F)(F)F)cc3)ccc21` [VII, (E)-5-(4-(trifluoromethyl)styryl)benzo[c][1,2]oxaborol-1(3H)-ol] the value was 1.07; for `OB1OCc2cc(/C=C/c3cc(F)cc(C(F)(F)F)c3)ccc21` [V], 0.72.
For the compound `OB1OCc2cc(/C=C/c3cccc(Cl)c3)ccc21` [X, (E)-5-(3-chlorostyryl)benzo[c][1,2]oxaborol-1(3H)-ol], the “Relative mRNA expression of SCD-1” value in test [2] (AN3CA cells) is reported as 0.56. Also, the “inhibitory effect on Srebp” value in test [2] (human endometrial cancer AN3CA cells) was “high inhibitory effect”. In addition, the IC50 in test [4] came to 20.6 µM; in test [5], 19.2 µM.
Consider `Cc1cccc(/C=C/c2ccc3c(c2)COB3O)c1` [XI, (E)-5-(3-methylstyryl)benzo[c][1,2]oxaborol-1(3H)-ol], for which the values for the half-maximal inhibitory concentration (IC50) in test [4] and in test [5] were 34.3 µM and 32.9 µM, respectively.
With `COc1cccc(/C=C/c2ccc3c(c2)COB3O)c1` [XII, (E)-5-(3-methoxystyryl)benzo[c][1,2]oxaborol-1(3H)-ol], the “Relative mRNA expression of SCD-1” value in test [2] (AN3CA cells) is on record as 0.62. For the same compound, the figures for the IC50 in test [4] and in test [5] were 37.4 µM and 34.1 µM, respectively.
The matching figures for `OB1OCc2cc(/C=C/c3ccccc3)ccc21` [XIII, (E)-5-styrylbenzo[c][1,2]oxaborol-1(3H)-ol]: 0.71, 45.6 µM and 41 µM.
Consider `OB1OCc2cc(Cl)ccc21` [travaborole, reference compound], for which, in test [2] (AN3CA cells), the “activity of reducing SCD-1 gene expression (in words)” value is “do not have the activity of reducing the expression of SCD-1 gene” and the “Relative mRNA expression of SCD-1” value turned out to be 1.08.

For orientation: IC50 means the point on the concentration scale where inhibition reaches its midpoint.
